Legend:
[1] = molecular target: T1, 20S Human Erythrocyte Proteasome (HEP) (Homo sapiens, UniProt P20618+P28074); assay: Chymotrypsin-like activity of 20S Human Erythrocyte Proteasome (HEP), IC50 determination; type: biochemical; settings: assay of Example C, inhibition of HEP
T1 construct: 20S Human Erythrocyte Proteasome (HEP), purchased from Immatics Biotechnologies Inc; purchased Immatics Biotechnologies Inc., Tübingen, Germany; host or cells: human erythrocytes (natural source)
Outline: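 20S proteasome at 0.2 μg/mL (about 0.6 nM catalytic sites) in 20 mM Tris with 0.04% SDS, preincubated 15 min at 37° C with inhibitor before Suc-LLVY-AMC (100 μM final). AMC fluorescence read in the linear range; triplicates, IC50 from concentration series.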

[2] = molecular target: T2, proteasome in Molt-4 cells (human leukemia) (Homo sapiens, UniProt P20618+P28074); type: cell-based; settings: assay of Example E, inhibition of MOLT4; read-out: MOLT4 (EC50)
T2 sequence (P28074 60-263): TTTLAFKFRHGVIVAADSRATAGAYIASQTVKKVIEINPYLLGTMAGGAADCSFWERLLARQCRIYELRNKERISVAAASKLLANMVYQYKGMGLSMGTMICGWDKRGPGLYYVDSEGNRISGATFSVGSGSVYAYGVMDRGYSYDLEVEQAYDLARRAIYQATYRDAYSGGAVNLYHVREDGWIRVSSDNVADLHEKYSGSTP
T2 sequence (P20618 29-241): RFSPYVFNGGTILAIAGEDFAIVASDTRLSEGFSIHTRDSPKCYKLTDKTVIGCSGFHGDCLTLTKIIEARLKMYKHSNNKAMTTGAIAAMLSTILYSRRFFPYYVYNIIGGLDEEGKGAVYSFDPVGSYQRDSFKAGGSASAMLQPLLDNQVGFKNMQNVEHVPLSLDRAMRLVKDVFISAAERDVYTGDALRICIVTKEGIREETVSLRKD
Outline: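 Intact Molt-4 cells (6×10^6 cells/mL) in HEPES-buffered saline were preincubated with inhibitor 15 min at 37 °C, then given cell-permeable MeOSuc-FLF-AFC at 25 μM final.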

SMILES	IC50 [1]	EC50 [2]
CCCCOCC(=O)N[C@@H](CCCNC(=N)N[N+](=O)[O-])C(=O)N[C@@H](CC(C)C)B1O[C@@H]2C[C@@H]3C[C@@H](C3(C)C)[C@]2(C)O1 [D.2.3, 2-Butoxyacetamide,N-[(1S)-1-[[[(1R)-1-[(3aS,4S,6S,7aR)-hexahydro-3a,5,5-trimethyl-4,6-methano-1,3,2-benzodioxaborol-2-yl]-3-methylbutyl]amino]carbonyl]-4-[[imino(nitroamino)methyl]amino]butyl]]	< 10 nM	< 200 nM
CC(C)C[C@H](NC(=O)[C@H](CCCNC(=N)N[N+](=O)[O-])NC(=O)CCCCCCCCCCCNC(=O)OC(C)(C)C)B1O[C@@H]2C[C@@H]3C[C@@H](C3(C)C)[C@]2(C)O1 [D.2.4, 12-[(1,1-dimethylethoxy)carbonylamino] dodecanamide,N-[(1S)-1-[[[(1R)-1-[(3aS,4S,6S,7aR)-hexahydro-3a,5,5-trimethyl-4,6-methano-1,3,2-benzodioxaborol-2-yl]-3-methylbutyl]amino]carbonyl]-4-[[imino(nitroamino)methyl]amino]butyl]-]	< 10 nM	< 200 nM
CCCCCCCCCC(=O)NCC(=O)N[C@@H](CC(C)C)B1O[C@@H]2C[C@@H]3C[C@@H](C3(C)C)[C@]2(C)O1 [D.2.7, Decanamide,N-[1-[[[(1R)-1-[(3aS,4S,6S,7aR)-hexahydro-3a,5,5-trimethyl-4,6-methano-1,3,2-benzodioxaborol-2-yl]-3-methylbutyl]amino]carbonyl]methyl]]	< 10 nM	< 200 nM
COCCOCCOCC(=O)NCC(=O)N[C@@H](CC(C)C)B1O[C@@H]2C[C@@H]3C[C@@H](C3(C)C)[C@]2(C)O1 [D.2.8, 2-[2-(2-methoxyethoxy)ethoxy]acetamide,N-[1-[[[(1R)-1-[(3aS,4S,6S,7aR)-hexahydro-3a,5,5-trimethyl-4,6-methano-1,3,2-benzodioxaborol-2-yl]-3-methylbutyl]amino]carbonyl]methyl]]	< 100 nM	< 200 nM
CC(C)C[C@H](NC(=O)[C@H](CCCNC(=N)N[N+](=O)[O-])NC(=O)c1cccc2ccccc12)B1O[C@@H]2C[C@@H]3C[C@@H](C3(C)C)[C@]2(C)O1 [D.3.2, Naphthalen-1-carboxamide,N-[(1S)-1-[[[(1R)-1-[(3aS,4S,6S,7aR)-hexahydro-3a,5,5-trimethyl-4,6-methano-1,3,2-benzodioxaborol-2-yl]-3-methylbutyl]amino]carbonyl]-4-[[imino(nitroamino)methyl]amino]butyl]]	< 10 nM	< 200 nM
CC(C)C[C@H](NC(=O)[C@H](CCCNC(=N)N[N+](=O)[O-])NC(=O)c1ccc(Br)cc1)B1O[C@@H]2C[C@@H]3C[C@@H](C3(C)C)[C@]2(C)O1 [D.3.24, 4-Bromobenzamide,N-[(1S)-1-[[[(1R)-1-[(3aS,4S,6S,7aR)-hexahydro-3a,5,5-trimethyl-4,6-methano-1,3,2-benzodioxaborol-2-yl]-3-methylbutyl]amino]carbonyl]-4-[[imino(nitroamino)methyl]amino]butyl]]	< 10 nM	< 200 nM
C/C(=C\c1ccccc1)C(=O)N[C@@H](CCCNC(=N)N[N+](=O)[O-])C(=O)N[C@@H](CC(C)C)B1O[C@@H]2C[C@@H]3C[C@@H](C3(C)C)[C@]2(C)O1 [D.3.26, (E)-2-Methyl-3-phenyl-acrylamide,N-[(1S)-1-[[[(1R)-1-[(3aS,4S,6S,7aR)-hexahydro-3a,5,5-trimethyl-4,6-methano-1,3,2-benzodioxaborol-2-yl]-3-methylbutyl]amino]carbonyl]-4-[[imino(nitroamino)methyl]amino]butyl]]	< 10 nM	< 200 nM
CC(C)C[C@H](NC(=O)[C@H](CCCNC(=N)N[N+](=O)[O-])NC(=O)COc1ccc2ccccc2c1)B1O[C@@H]2C[C@@H]3C[C@@H](C3(C)C)[C@]2(C)O1 [D.3.27, 2-[(Naphthalen-2-yl)oxy]acetamide,N-[(1S)-1-[[[(1R)-1-[(3aS,4S,6S,7aR)-hexahydro-3a,5,5-trimethyl-4,6-methano-1,3,2-benzodioxaborol-2-yl]-3-methylbutyl]amino]carbonyl]-4-[[imino(nitroamino)methyl]amino]butyl]]	< 10 nM	< 200 nM
CC(C)C[C@H](NC(=O)[C@H](CCCNC(=N)N[N+](=O)[O-])NC(=O)Cc1ccccc1Cl)B1O[C@@H]2C[C@@H]3C[C@@H](C3(C)C)[C@]2(C)O1 [D.3.29, 2-(2-Chlorophenyl)acetamide,N-[(1S)-1-[[[(1R)-1-[(3aS,4S,6S,7aR)-hexahydro-3a,5,5-trimethyl-4,6-methano-1,3,2-benzodioxaborol-2-yl]-3-methylbutyl]amino]carbonyl]-4-[[imino(nitroamino)methyl]amino]butyl]]	< 10 nM	< 200 nM

Now from value to compound:

IC50 [1]	EC50 [2]	SMILES
< 10 nM	> 10000 nM	CCCCN1CCC(CCCC(=O)N[C@@H](CCCNC(=N)N[N+](=O)[O-])C(=O)N[C@@H](CC(C)C)B2O[C@@H]3C[C@@H]4C[C@@H](C4(C)C)[C@]3(C)O2)CC1 [D.2.2, 4-(1-Butyl-piperidin-4-yl)-butanamide,N-[(1S)-1-[[[(1R)-1-[(3aS,4S,6S,7aR)-hexahydro-3a,5,5-trimethyl-4,6-methano-1,3,2-benzodioxaborol-2-yl]-3-methylbutyl]amino]carbonyl]-4-[[imino(nitroamino)methyl]amino]butyl]]
< 10 nM	200 to 2000 nM	COC(=O)CCCCCCC(=O)N[C@@H](CCCNC(=N)N[N+](=O)[O-])C(=O)N[C@@H](CC(C)C)B1O[C@@H]2C[C@@H]3C[C@@H](C3(C)C)[C@]2(C)O1 [D.2.5]
< 100 nM	2000 to 10000 nM	COCCOCC(=O)NCC(=O)N[C@@H](CCCNC(=N)N[N+](=O)[O-])C(=O)N[C@@H](CC(C)C)B1O[C@@H]2C[C@@H]3C[C@@H](C3(C)C)[C@]2(C)O1 [D.2.6]
< 10 nM	< 200 nM	CCCCCCCCCC(=O)N[C@@H](CCCNC(=N)N[N+](=O)[O-])C(=O)N[C@@H](CC(C)C)B1O[C@@H]2C[C@@H]3C[C@@H](C3(C)C)[C@]2(C)O1 [D.3.1, Decanamide,N-[(1S)-1-[[[(1R)-1-[(3aS,4S,6S,7aR)-hexahydro-3a,5,5-trimethyl-4,6-methano-1,3,2-benzodioxaborol-2-yl]-3-methylbutyl]amino]carbonyl]-4-[[imino(nitroamino)methyl]amino]butyl]]
< 10 nM	200 to 2000 nM	CC(C)C[C@H](NC(=O)[C@H](CCCNC(=N)N[N+](=O)[O-])NC(=O)Cc1ccccc1)B1O[C@@H]2C[C@@H]3C[C@@H](C3(C)C)[C@]2(C)O1 [D.3.3]
< 10 nM	< 200 nM	CCCCCCCCCCCC(=O)N[C@@H](CCCNC(=N)N[N+](=O)[O-])C(=O)N[C@@H](CC(C)C)B1O[C@@H]2C[C@@H]3C[C@@H](C3(C)C)[C@]2(C)O1 [D.3.7, Dodecanamide,N-[(1S)-1-[[[(1R)-1-[(3aS,4S,6S,7aR)-hexahydro-3a,5,5-trimethyl-4,6-methano-1,3,2-benzodioxaborol-2-yl]-3-methylbutyl]amino]carbonyl]-4-[[imino(nitroamino)methyl]amino]butyl]]
< 10 nM	< 200 nM	CCCCCCCC(=O)N[C@@H](CCCNC(=N)N[N+](=O)[O-])C(=O)N[C@@H](CC(C)C)B1O[C@@H]2C[C@@H]3C[C@@H](C3(C)C)[C@]2(C)O1 [D.3.8, Octanamide,N-[(1S)-1-[[[(1R)-1-[(3aS,4S,6S,7aR)-hexahydro-3a,5,5-trimethyl-4,6-methano-1,3,2-benzodioxaborol-2-yl]-3-methylbutyl]amino]carbonyl]-4-[[imino(nitroamino)methyl]amino]butyl]]
< 10 nM	< 200 nM	CCCCC[C@H]1CC[C@H](C(=O)N[C@@H](CCCNC(=N)N[N+](=O)[O-])C(=O)N[C@@H](CC(C)C)B2O[C@@H]3C[C@@H]4C[C@@H](C4(C)C)[C@]3(C)O2)CC1 [D.3.11, trans-4-Pentylcyclohexanecarboxamide, N-[(1S)-1-[[[(1R)-1-[(3aS,4S,6S,7aR)-hexahydro-3a,5,5-trimethyl-4,6-methano-1,3,2-benzodioxaborol-2-yl]-3-methylbutyl]amino]carbonyl]-4-[[imino(nitroamino)methyl]amino]butyl]]
< 10 nM	< 200 nM	CC(C)C[C@H](NC(=O)[C@H](CCCNC(=N)N[N+](=O)[O-])NC(=O)CCCc1ccccc1)B1O[C@@H]2C[C@@H]3C[C@@H](C3(C)C)[C@]2(C)O1 [D.3.12, 4-Phenylbutanamide,N-[(1S)-1-[[[(1R)-1-[(3aS,4S,6S,7aR)-hexahydro-3a,5,5-trimethyl-4,6-methano-1,3,2-benzodioxaborol-2-yl]-3-methylbutyl]amino]carbonyl]-4-[[imino(nitroamino)methyl]amino]butyl]]
< 10 nM	< 200 nM	CCCCCCCCC(=O)N[C@@H](CCCNC(=N)N[N+](=O)[O-])C(=O)N[C@@H](CC(C)C)B1O[C@@H]2C[C@@H]3C[C@@H](C3(C)C)[C@]2(C)O1 [D.3.15, Nonanamide,N-[(1S)-1-[[[(1R)-1-[(3aS,4S,6S,7aR)-hexahydro-3a,5,5-trimethyl-4,6-methano-1,3,2-benzodioxaborol-2-yl]-3-methylbutyl]amino]carbonyl]-4-[[imino(nitroamino)methyl]amino]butyl]]

Source: patent US8546608B2, “Proteasome inhibitors and methods of using the same” (Cephalon, Inc., priority 2003, dated 2013)
